Laboratory results published in ChEMBL document CHEMBL3045829, “Structure- and species-dependent insecticidal effects of neo-clerodane diterpenes” (J Agric Food Chem, 2000).

Tests used:
Spodoptera littoralis [1] = experiment: Antifeedant activity against Spodoptera littoralis assessed as inhibition of feeding at 50 ug/cm2 by choice feeding assay relative to untreated control; assay type: functional
[2] = system: Leptinotarsa decemlineata; experiment: Antifeedant activity against Leptinotarsa decemlineata assessed as inhibition of feeding at 50 ug/cm2 by no-choice feeding assay relative to untreated control; assay type: functional
Spodoptera littoralis [3] = experiment: Antifeedant activity against Spodoptera littoralis assessed as inhibition of feeding by choice feeding assay relative to untreated control; assay type: functional, organism-based
Spodoptera littoralis [4] = experiment: Nutritional effect in Spodoptera littoralis L6 larvae assessed as weight gain at 20 ug/insect administered through oral cannulation after 72 hr relative to untreated control; assay type: functional
[5] = system: Leptinotarsa decemlineata; experiment: Toxicity against Leptinotarsa decemlineata assessed as insect mortality administered through hemolymph injection after 72 hr; assay type: functional; design: concentration or dose not given beside the values
[6] = system: Leptinotarsa decemlineata; experiment: Antifeedant activity against Leptinotarsa decemlineata assessed as inhibition of feeding at 50 ug/cm2 by choice feeding assay relative to untreated control; assay type: functional
Spodoptera littoralis [7] = experiment: Nutritional effect in Spodoptera littoralis L6 larvae assessed as food consumption at 20 ug/insect administered through oral cannulation after 72 hr relative to untreated control; assay type: functional
[8] = system: Leptinotarsa decemlineata; experiment: Antifeedant activity against Leptinotarsa decemlineata assessed as inhibition of feeding by choice feeding assay relative to untreated control; assay type: functional, organism-based
[9] = system: Leptinotarsa decemlineata; experiment: Antifeedant activity against Leptinotarsa decemlineata assessed as inhibition of feeding by no-choice feeding assay relative to untreated control; assay type: functional, organism-based
Myzus persicae [10] = experiment: Antifeedant activity against Myzus persicae (green peach aphid) assessed feeding settling inhibition index at 50 ug/cm2 relative to untreated control; assay type: functional
Myzus persicae [11] = experiment: Potency index, ratio of antifeedant activity of farnesol to compound against Myzus persicae (green peach aphid) assessed feeding settling inhibition index at 50 ug/cm2; assay type: functional

| Structure (SMILES) | inhibition at 50 µg/cm2 (Spodoptera littoralis [1]) [%] | inhibition at 50 µg/cm2 [2] [%] | EC50 (Spodoptera littoralis [3]) [microg/cm2] | Activity (Spodoptera littoralis [4]) [%] | mortality [5] [%] | inhibition at 50 µg/cm2 [6] [%] | Activity (Spodoptera littoralis [7]) [%] | EC50 [8] [microg/cm2] | EC50 [9] [microg/cm2] | inhibition at 50 µg/cm2 (Myzus persicae [10]) [%] | fold change (FC) (Myzus persicae [11]) |
| --- | --- | --- | --- | --- | --- | --- | --- | --- | --- | --- | --- |
| CC(=O)OC/C=C(\COC(C)=O)C(C[C@@]1(C)[C@H](C)CC[C@]2(C)[C@@H]1CCCC2(O)CO)OC(C)=O (stereo partly specified) | 32.6 | 86.5 | > 50 | 29.72 | 50 | 97.1 | 38.19 | – | – | – | – |
| C[C@@H]1CC[C@@H]2C(C)(C)C[C@]3(C)CC=C[C@]123 [SILPHINENE] | – | – | – | – | 24 | – | – | 0.27 | 2.7 | – | – |
| CC(=O)OC/C=C(\COC(C)=O)[C@@H](C[C@@]1(C)[C@H](C)CC[C@@]2(C)C(C)=CCC[C@H]12)OC(C)=O | 28.1 | 35.5 | > 50 | 30.69 | 8 | 31.4 | 40.02 | > 50 | > 50 | 33.5 | – |
| CC(C)=CCC/C(C)=C/CC/C(C)=C/CO [FARNESOL] | – | – | – | – | – | – | – | – | – | 90.6 | – |
| CC(=O)OC/C=C(\COC(C)=O)C(C[C@@]1(C)[C@H](C)CC[C@]2(C)[C@@H]1CCCC21CO1)OC(C)=O (stereo partly specified) | 17.9 | 40.7 | > 50 | 31.03 | 50 | 96.6 | 39.74 | 6.4 | > 50 | 26.3 | – |
| C=C1CCC[C@@H]2[C@@](C)(C/C=C(\CC=O)C(C)=O)[C@H](C)CC[C@@]12C | 14.7 | 98.9 | > 50 | 104.33 | 26 | 89.9 | 92.7 | 12.8 | 7.7 | 45.6 | 2 |
| C=C1CCC[C@@H]2[C@@](C)(CC(OC(C)=O)/C(=C/COC(C)=O)COC(C)=O)[C@H](C)CC[C@@]12C (stereo partly specified) | 18.4 | 11.6 | > 50 | 104.75 | 32 | 38.5 | 93.02 | > 50 | > 50 | 19.7 | – |
| C=C1CCC[C@@H]2[C@@](C)(CC(O)/C(=C/COC(C)=O)COC(C)=O)[C@H](C)CC[C@@]12C (stereo partly specified) | 42.5 | 22.6 | > 50 | 106.65 | 26 | 61.4 | 88.33 | > 50 | > 50 | 48.2 | 2 |
| C=C1CCC[C@@H]2[C@@](C)(C/C=C3/CC(OC(C)=O)OC3OC(C)=O)[C@H](C)CC[C@@]12C (stereo partly specified) | 11.2 | 28.8 | > 50 | 110.18 | 25 | 33.8 | 110.26 | > 50 | > 50 | 43.1 | 2 |
| CC(=O)OC1C/C(=C/C[C@@]2(C)[C@H](C)CC[C@]3(C)[C@@H]2CCC[C@@]32CO2)C(OC(C)=O)O1 (stereo partly specified) | 73.9 | 73.3 | – | 26.37 | 42 | 91.2 | 55.54 | – | – | – | – |
| C=C1CCC[C@@H]2[C@@](C)(C/C=C(/C=O)CC=O)[C@H](C)CC[C@@]12C [E-ISOLINARIDIAL] | 23.3 | 90.7 | > 50 | 108.22 | 0 | 90.1 | 95.56 | 10.5 | 8.5 | 44.3 | 2 |
